ChEMBL document CHEMBL4020848, “Antibacterial Activity Affected by the Conformational Flexibility in Glycine-Lysine Based α-Helical Antimicrobial Peptides” (J Med Chem, 2018)
Active and inactive are the calls of the source. The calls are words filed in the database; no cut-off is given here.

What was measured:
[1] = Selectivity index, ratio of HC50 for human RBC to MIC for Acinetobacter baumannii ATCC 19606
[2] = Selectivity index, ratio of HC50 for human RBC to MIC for Escherichia coli ATCC 25922
[3] = Selectivity index, ratio of HC50 for human RBC to MIC for Pseudomonas aeruginosa ATCC 27853
Acinetobacter baumannii [4] = assay: Bactericidal activity against Acinetobacter baumannii ATCC 19606 after 18 hrs by microdilution method; format: functional; conditions: ATCC 19606 = CIP 70.34 = JCM 6841, 18 h, read-out: MBC=>99.9
Escherichia coli [5] = assay: Induction of membrane permeabilization in Escherichia coli ATCC 25922 assessed as loss of pili/flagella at MBC after 1 hr by atomic force microscopic method; format: functional
Klebsiella pneumoniae [6] = assay: Antibacterial activity against clinical isolates of Klebsiella pneumoniae after 18 hrs by microdilution method; format: functional
Escherichia coli [7] = assay: Induction of membrane permeabilization in Escherichia coli ATCC 25922 assessed as formation of pores/cavities at MIC after 1 hr by atomic force microscopic method; format: functional
Escherichia coli [8] = assay: Bactericidal activity against clinical isolates of Escherichia coli after 18 hrs by microdilution method; format: functional; conditions: read-out: MBC=>99.9
Pseudomonas aeruginosa [9] = assay: Bactericidal activity against clinical isolates of Pseudomonas aeruginosa after 18 hrs by microdilution method; format: functional; conditions: read-out: MBC=>99.9
Escherichia coli [10] = assay: Growth inhibition of Escherichia coli ATCC 25922 measured every 10 mins for 4 hrs; format: functional
Acinetobacter baumannii [11] = assay: Antibacterial activity against Acinetobacter baumannii ATCC 19606 after 18 hrs by microdilution method; format: functional; conditions: ATCC 19606 = CIP 70.34 = JCM 6841, 18 h
[12] = Selectivity index, ratio of HC50 for human RBC to MIC for Klebsiella pneumoniae ATCC 13883
Klebsiella pneumoniae [13] = assay: Antibacterial activity against Klebsiella pneumoniae ATCC 13883 after 18 hrs by microdilution method; format: functional; conditions: ATCC 13883, 18 h
Staphylococcus aureus [14] = assay: Bactericidal activity against Staphylococcus aureus ATCC 25923 after 18 hrs by microdilution method; format: functional; conditions: ATCC 25923, 18 h, read-out: MBC=>99.9
[15] = Selectivity index, ratio of HC50 for human RBC to MIC for Escherichia coli
[16] = Selectivity index, ratio of HC50 for human RBC to MIC for Staphylococcus aureus
Pseudomonas aeruginosa [17] = assay: Antibacterial activity against clinical isolates of Pseudomonas aeruginosa after 18 hrs by microdilution method; format: functional
Pseudomonas aeruginosa [18] = assay: Bactericidal activity against Pseudomonas aeruginosa ATCC 27853 after 18 hrs by microdilution method; format: functional; conditions: ATCC 27853, 18 h, read-out: MBC=>99.9
Staphylococcus aureus [19] = assay: Antibacterial activity against clinical isolates of Staphylococcus aureus after 18 hrs by microdilution method; format: functional
Acinetobacter baumannii [20] = assay: Bactericidal activity against clinical isolates of Acinetobacter baumannii after 18 hrs by microdilution method; format: functional; conditions: read-out: MBC=>99.9
Klebsiella pneumoniae [21] = assay: Bactericidal activity against clinical isolates of Klebsiella pneumoniae after 18 hrs by microdilution method; format: functional; conditions: read-out: MBC=>99.9
[22] = Selectivity index, ratio of HC50 for human RBC to MIC for Staphylococcus aureus ATCC 25923
[23] = Selectivity index, ratio of HC50 for human RBC to MIC for Klebsiella pneumoniae
[24] = Selectivity index, ratio of HC50 for human RBC to MIC for Pseudomonas aeruginosa
Staphylococcus aureus [25] = assay: Antibacterial activity against Staphylococcus aureus ATCC 25923 after 18 hrs by microdilution method; format: functional; conditions: ATCC 25923, 18 h
Escherichia coli [26] = assay: Induction of membrane permeabilization in Escherichia coli ATCC 25922 assessed as propidium iodide uptake preincubated up to 60 mins followed by propidium iodide addition by flow cytometry; format: functional
Escherichia coli [27] = assay: Induction of membrane permeabilization in Escherichia coli ATCC 25922 assessed as propidium iodide uptake at MIC preincubated for 15 mins followed by propidium iodide addition by flow cytometry relative to control; format: functional
Escherichia coli [28] = assay: Antibacterial activity against clinical isolates of Escherichia coli after 18 hrs by microdilution method; format: functional
Escherichia coli [29] = assay: Induction of membrane permeabilization in Escherichia coli ATCC 25922 assessed as bleb formation at MIC after 1 hr by atomic force microscopic method; format: functional
Pseudomonas aeruginosa [30] = assay: Antibacterial activity against Pseudomonas aeruginosa ATCC 27853 after 18 hrs by microdilution method; format: functional; conditions: ATCC 27853, 18 h
Staphylococcus aureus [31] = assay: Bactericidal activity against clinical isolates of Staphylococcus aureus after 18 hrs by microdilution method; format: functional; conditions: read-out: MBC=>99.9
[32] = Selectivity index, ratio of HC50 for human RBC to MIC for Acinetobacter baumannii
Klebsiella pneumoniae [33] = assay: Bactericidal activity against Klebsiella pneumoniae ATCC 13883 after 18 hrs by microdilution method; format: functional; conditions: ATCC 13883, 18 h, read-out: MBC=>99.9
Escherichia coli [34] = assay: Induction of membrane permeabilization in Escherichia coli ATCC 25922 assessed as massive cell disruption/collapse at MBC after 1 hr by atomic force microscopic method; format: functional
Escherichia coli [35] = assay: Antibacterial activity against Escherichia coli ATCC 25922 after 18 hrs by microdilution method; format: functional; conditions: ATCC 25922, 18 h
Escherichia coli [36] = assay: Induction of membrane permeabilization in Escherichia coli ATCC 25922 assessed as surface indentations at MIC after 1 hr by atomic force microscopic method; format: functional
Escherichia coli [37] = assay: Bactericidal activity against Escherichia coli ATCC 25922 after 18 hrs by microdilution method; format: functional; conditions: ATCC 25922, 18 h, read-out: MBC=>99.9
Acinetobacter baumannii [38] = assay: Antibacterial activity against clinical isolates of Acinetobacter baumannii after 18 hrs by microdilution method; format: functional
Staphylococcus aureus [39] = assay: Growth inhibition of Staphylococcus aureus ATCC 25923 measured every 10 mins for 4 hrs; format: functional
Escherichia coli [40] = assay: Ratio of MIC to IC50 for Escherichia coli ATCC 25922; format: functional
Escherichia coli [41] = assay: Induction of membrane permeabilization in Escherichia coli ATCC 25922 assessed as loss of pili/flagella up to 128 uM after 1 hr by atomic force microscopic method; format: functional
Escherichia coli [42] = assay: Induction of membrane permeabilization in Escherichia coli ATCC 25922 assessed as propidium iodide uptake at 0.25 to 1 times MIC preincubated up to 60 mins followed by propidium iodide addition by flow cytometry relative to control; format: functional

Row | Substance | MBC (Acinetobacter baumannii [4]) [µM] | Activity (Escherichia coli [5]) | MIC (Klebsiella pneumoniae [6]) [µM] | Activity (Escherichia coli [7]) | MBC (Escherichia coli [8]) [µM] | MBC (Pseudomonas aeruginosa [9]) [µM] | IC50 (Escherichia coli [10]) [µM] | MIC (Acinetobacter baumannii [11]) [µM] | MIC (Klebsiella pneumoniae [13]) [µM] | MBC (Staphylococcus aureus [14]) [µM] | MIC (Pseudomonas aeruginosa [17]) [µM] | MBC (Pseudomonas aeruginosa [18]) [µM] | MIC (Staphylococcus aureus [19]) [µM] | MBC (Acinetobacter baumannii [20]) [µM] | MBC (Klebsiella pneumoniae [21]) [µM] | MIC (Staphylococcus aureus [25]) [µM] | IC50 (Escherichia coli [26]) [µM] | MIC (Escherichia coli [28]) [µM] | Activity (Escherichia coli [29]) | MIC (Pseudomonas aeruginosa [30]) [µM] | further results
1 | H-KIGKALGKALKALGKALGKA-NH2 | 2 | Active | 16 | Active | 64 | 32 | 0.7 | 2 | 16 | 32 | 16 to 32 | 16 | 16 | 64 | 32 | 16 | 1.4 | 32 to 64 | Active | 8 | Selectivity Index [1]: 5; Selectivity Index [2]: 2; Selectivity Index [3]: 2; Selectivity Index [12]: < 1; Selectivity Index [15]: < 1; Selectivity Index [16]: < 1; Selectivity Index [22]: < 1; Selectivity Index [23]: < 1; Selectivity Index [24]: < 1; Activity (Escherichia coli [27]): >80%; MBC (Staphylococcus aureus [31]): 16 to 32 µM; Selectivity Index [32]: < 1; MBC (Klebsiella pneumoniae [33]): 32 µM; Activity (Escherichia coli [34]): Active; MIC (Escherichia coli [35]): 8 µM; Activity (Escherichia coli [36]): Active; MBC (Escherichia coli [37]): 16 µM; MIC (Acinetobacter baumannii [38]): 32 to 64 µM; IC50 (Staphylococcus aureus [39]): 2.3 µM
2 | H-KIAKGALKALKIAKGALKAL-NH2 | 2 | Active | 8 | Active | > 64 | 16 | 0.3 | 1 to 2 | 2 to 4 | 32 | 8 to 16 | 16 to 32 | 16 | > 64 | 16 | 16 to 32 | 0.6 | 64 | Active | 8 to 16 | Selectivity Index [1]: 50 to 100; Selectivity Index [2]: 25; Selectivity Index [3]: 6 to 12; Selectivity Index [12]: 25 to 50; Selectivity Index [15]: < 1; Selectivity Index [16]: 6; Ratio (Escherichia coli [40]): >10; Selectivity Index [22]: 3 to 6; Selectivity Index [23]: 12; Selectivity Index [24]: 6 to 12; Activity (Escherichia coli [27]): >80%; MBC (Staphylococcus aureus [31]): 16 µM; Selectivity Index [32]: < 1; MBC (Klebsiella pneumoniae [33]): 4 µM; Activity (Escherichia coli [34]): Active; MIC (Escherichia coli [35]): 4 µM; Activity (Escherichia coli [36]): Active; MBC (Escherichia coli [37]): 16 µM; MIC (Acinetobacter baumannii [38]): > 64 µM; IC50 (Staphylococcus aureus [39]): 1.6 µM
3 | H-KIAGKAGKIAKIAGKAGKIA-NH2 | > 64 | Active | > 64 | Active | > 64 | > 64 | > 128 | > 64 | > 64 | > 64 | > 64 | > 64 | > 64 | > 64 | > 64 | > 64 | > 128 | > 64 | Active | > 64 | Activity (Escherichia coli [41]): inactive; Activity (Escherichia coli [42]): <5%; MBC (Staphylococcus aureus [31]): > 64 µM; MBC (Klebsiella pneumoniae [33]): > 64 µM; Activity (Escherichia coli [34]): Active; MIC (Escherichia coli [35]): > 64 µM; Activity (Escherichia coli [36]): Active; MBC (Escherichia coli [37]): > 64 µM; MIC (Acinetobacter baumannii [38]): > 64 µM; IC50 (Staphylococcus aureus [39]): > 128 µM
